These results are taken from patent publication US20240299273A1, “MULTIPHASIC LIQUID COMPOSITIONS FOR IMPROVED DEPOSITION OF ACTIVE INGREDIENTS” (SPECIALITY OPERATIONS FRANCE, priority 2021, published 2024).

Data set [1] in a line: Solubility of amphiphilic compound in pure water. The class given is physicochemical.
A short description of data set [2]: Compatibility / phase separation of amphiphilic compound with amphiphilic surfactant system in water (microscope, visual appearance). To be noted: concentrations as in the label, SLES alone at 12 wt. %. The class given is physicochemical. The protocol: Further, in certain embodiments, the amphiphilic compound forms a separate phase from the amphiphilic surfactant system when the amphiphilic surfactant system and the amphiphilic compound are combined in water. In this respect, the separate phase is determined by combining from 5 wt. % up to 70 wt. % of a total concentration of the amphiphilic compound and the amphiphilic surfactant system, based on a total weight of the amphiphilic compound, the amphiphilic surfactant system, and water totaling 100 wt. %, with the ratio of the amphiphilic surfactant system to the amphiphilic compound ranging from 99:1 to 50:50, preferably from 90:10 to 60:40, more preferably from 80:20 to 70:30, and determining whether any objects larger than 150 nm are observed using a conventional microscope, preferably an Olympus IX71 conventional microscope, equipped with 100× oil objective.
With respect to the amphiphilic compounds being immiscible with a combination of the amphiphilic surfactant system and water, the amphiphilic compounds can form a separate phase from the amphiphilic surfactant system in water at 25° C. […]
The interfacial tension was measured using Sigma 701 tensiometer, and compatibility was observed using Olympus IX71 conventional microscope equipped with 100× oil objective, as described above.

`CCCCCCCCCCCCCCCCCC(=O)OCC[N+](C)(C)CCOC(=O)CCCCCCCCCCCCCCCCC.[Cl-]` [DEEDMAC, Dimethylbis[2-[(1-oxooctadecyl)oxy]ethyl]ammonium chloride]: the solubility in water in data set [1] is less than 1 wt %).
With `CCCCCCCCCC[N+](C)(C)CCCCCCCCCC.[Cl-]` [Maquat 4450, didecyldimethylammonium chloride], in data set [1], the “solubility in water (in words)” value is on record as “high water solubility”.
In data set [1], `CCCCCCCCCCCCCOC(=O)CC(C(=O)OCCCCCCCCCCCCC)S(=O)(=O)O.[Na]` (stereo not shown) [Sodium bis(tridecyl) sulfosuccinate] came in with a solubility in water of less than 1 wt %).
Regarding “sodium laureth sulfate [sodium laureth sulfate (SLES)]”, in data set [2], the “visual appearance (FIG. 2)” value is “transparent, and therefore, no phase separation”.
